# Assay results taken from US20050191668A1, “Methods of using peroxisome proliferator-activated receptor alpha target genes” (priority 2004, published 2005).
# Key:
# Type in all cases: cell-based, human
# Pa13 gene [1] = test: Pa13 gene expression by real-time RT-PCR in HuH7 hepatocytes
# Text: (§1) Human hepatocyte HuH7 cells, which are epithelial cells of liver, were obtained from Japan Health Science Research Resources Bank (Osaka, Japan). Human primary adipocytes, which are connective tissue cells specialized for the synthesis and storage of fat, were obtained from Zen-Bio, Inc (Research Triangle Park, NC). Human primary skeletal muscle cells (SKMC) were obtained from Cambrex Bio Science (Walkersville, Md.). PPARα agonists, Wy14643 (Agatha, et al, 2000, Archives of Biochemistry and Biophysics 380:353-359) and fenofibrates were obtained from Cayman Chemical (Ann Arbor, Mich.) and Sigma (St Louis, Mo.), respectively.
# (§2) Human HuH7 cells were cultured in Dulbecco's Modified Eagle Medium with 10% Fetal Bovine Serum (Gibco, N.Y.). Cells were treated with charcoal-stripped, delipidated calf serum (5%) (Sigma, St Louis, Mo.) for about 4-18 hours. Then, cells were treated with different concentrations of PPARα agonist (Wy14643 or fenofibrates) for about 20-24 h. Human SKM cells were cultured in Skeletal Muscle Growth Medium (Cambrex Bio Science, Walkersville, Md.), and were treated with different concentrations of PPARα agonist (Wy14643 or fenofibrates) for about 18-20 hours. Human primary adipocytes were cultured in Preadipocyte Medium, (Cat #PM—1, Zen-Bio, Inc., Research Triangle Park, NC), and were treated with different concentrations of PPARα agonist (Wy14643 or fenofibrates) for about 18-20 hours.
# (§3) Total RNA was purified from cultured cells following the protocol provided by the manufacturer (Trizon method, Invitrogen Inc. Ca). The polymerase chain reaction (PCR) primers and fluorescent probes (TagMan probes) for Pa9, Pa13, and Pa21 were designed from GenBank sequences of accession numbers W30988, AB000584, and NM_080725, respectively. The primers and probes were designed using the software PrimerDesign (Applied Biosystems, Foster City, Calif.). The PCR primers for Pa9 were SEQ ID NO: 7, (5-[…]) and SEQ ID NO: 8 (5-[…]). […] The PCR primers for Pa13 were SEQ ID NO: 10 (5-[…], T) and SEQ ID NO: 11 (5-[…] T). […] The PCR primers for Pa21 were SEQ ID NO: 13 (5-[…] C) and SEQ ID NO: 14 (5-[…]). […] All primers and probes were synthesized by Keystone Labs (Camarillo, Calif.).
# (§4) Reverse transcription (RT) and PCR were conducted in one step using “One-Step RT-PCR Master Mix Reagent” kit (Applied Biosystems, Foster City, Calif.) in ABI PRISM 7700 Sequence Detection System (Applied Biosystems). Each reaction was performed in a total volume of 25 μl containing 40 ng of total RNA. The reaction condition was: 48° C. for 30 minutes, 60° C. for 30 minutes, 94° C. for 5 minutes, followed by 40 cycles of 94° C. for 20 seconds and 60° C. for 1 minute. The primers for 18S ribosomal RNA were developed and provided by Applied Biosystems. The measurement of human 18S ribosomal RNA was used as an internal control for normalization of measuring and loading errors. PCR data were collected by Ct value (the cycle number at which logarithmic PCR plots cross a calculated threshold line) according to the manufacturer's guidelines and the value was used to determine the Δ^Ct (Ct of the target gene minus the Ct of 18S ribosomal RNA controls). Relative mRNA level was calculated using the equation 2^−ΔΔCt as described previously (Heid et al., 1996, Genome Res. 6:986-994).
# Pa21 gene [2] = test: Pa21 gene expression by real-time RT-PCR in HuH7 hepatocytes
# Text: as §1, §2, §3, §4
# Pa9 gene [3] = test: Pa9 gene expression by real-time RT-PCR in HuH7 hepatocytes; settings: HuH7 hepatocytes
# Text: as §1, §2, §3, §4
# Pa13 gene [4] = test: Pa13 gene expression by real-time RT-PCR in primary adipocytes; settings: about 18-20 hours, vehicle control = 100
# Text: as §1, §2, §3, §4
# Pa21 gene [5] = test: Pa21 gene expression by real-time RT-PCR in primary adipocytes; settings: about 18-20 hours, vehicle control = 100
# Text: as §1, §2, §3, §4
# Pa9 gene [6] = test: Pa9 gene expression by real-time RT-PCR in primary skeletal muscle cells; settings: about 18-20 hours, vehicle control = 100
# Text: as §1, §2, §3, §4
# The nucleotide sequence of the human FDRG gene (AX278133) is provided in SEQ ID NO: 1 and the sequence alignment between W30988 and FDRG gene is shown in FIG. 1. […] Quantitative real-time RT-PCR was performed to test whether gene expression of the human FDRG gene is regulated by PPARα.
# Pa9 gene [7] = test: Pa9 gene expression by real-time RT-PCR in primary adipocytes; settings: 50 uM, about 18-20 hours, vehicle control = 100
# Text: as §1, §2
# Total RNA was purified from cultured cells following the protocol provided by the manufacturer (Trizon method, Invitrogen Inc. Ca). The polymerase chain reaction (PCR) primers and fluorescent probes (TagMan probes) for Pa9, Pa13, and Pa21 were designed from GenBank sequences of accession numbers W30988, AB000584, and NM_080725, respectively. The primers and probes were designed using the software PrimerDesign (Applied Biosystems, Foster City, Calif.). The PCR primers for Pa9 were SEQ ID NO: 7, (5-[…]) and SEQ ID NO: 8 (5-[…]). […] The PCR primers for Pa13 were SEQ ID NO: 10 (5-[…], T) and SEQ ID NO: 11 (5-[…] T). […] The PCR primers for Pa21 were SEQ ID NO: 13 (5-[…] C) and SEQ ID NO: 14 (5-[…]). […]
# Reverse transcription (RT) and PCR were conducted in one step using “One-Step RT-PCR Master Mix Reagent” kit (Applied Biosystems, Foster City, Calif.) in ABI PRISM 7700 Sequence Detection System (Applied Biosystems). […] PCR data were collected by Ct value (the cycle number at which logarithmic PCR plots cross a calculated threshold line) according to the manufacturer's guidelines and the value was used to determine the Δ^Ct (Ct of the target gene minus the Ct of 18S ribosomal RNA controls). Relative mRNA level was calculated using the equation 2^−ΔΔCt as described previously (Heid et al., 1996, Genome Res. 6:986-994).
# Pa13 gene [8] = test: Pa13 gene expression by real-time RT-PCR in primary skeletal muscle cells; settings: about 18-20 hours, vehicle control = 100
# Text: as §1, §2, §3, §4
# Pa21 gene [9] = test: Pa21 gene expression by real-time RT-PCR in primary skeletal muscle cells; settings: about 18-20 hours, vehicle control = 100
# Text: as §1, §2, §3, §4
# [10] = 1 μM, vehicle control = 100 (Table 4)
# [11] = 3 uM, about 20-24 h, vehicle control = 100
# [12] = 10 uM, about 20-24 h, vehicle control = 100
# [13] = 30 uM, about 20-24 h, vehicle control = 100
# [14] = 100 uM, about 20-24 h, vehicle control = 100
# [15] = 300 uM, about 20-24 h, vehicle control = 100
smiles,measurement,setting,value
CN(CCOc1ccc(CC2SC(=O)NC2=O)cc1)c1ccccn1 (centres unmarked) [Rosiglitazone],"Pa13 (N26311) gene expression, Percentage ± SE (%)",Pa13 gene [1]; [10],217 ± 20.2%
same,"Pa21 (H4960) gene expression, Percentage ± SE (%)",Pa21 gene [2]; [10],97 ± 17.5%
same,"Pa9 (W38098) gene expression, Percentage ± SE (%)",Pa9 gene [3]; [10],147 ± 31.2%
CC(C)OC(=O)C(C)(C)Oc1ccc(C(=O)c2ccc(Cl)cc2)cc1 [Fenofibrate],"Pa13 (N26311) gene expression, Percentage ± SE (%)",Pa13 gene [4]; 10 uM,70 ± 27.1%
same,"Pa13 (N26311) gene expression, Percentage ± SE (%)",Pa13 gene [4]; 50 uM,45 ± 13.3%
same,"Pa13 (N26311) gene expression, Percentage ± SE (%)",Pa13 gene [4]; 250 uM,206 ± 34.4%
same,"Pa13 (N26311) gene expression, Percentage ± SE (%)",Pa13 gene [1]; [11],180 ± 43.9%
same,"Pa13 (N26311) gene expression, Percentage ± SE (%)",Pa13 gene [1]; [12],160 ± 55%
same,"Pa13 (N26311) gene expression, Percentage ± SE (%)",Pa13 gene [1]; [13],250 ± 4.8%
same,"Pa13 (N26311) gene expression, Percentage ± SE (%)",Pa13 gene [1]; [14],750 ± 10.8%
same,"Pa13 (N26311) gene expression, Percentage ± SE (%)",Pa13 gene [1]; [15],710 ± 7.3%
same,"Pa21 (H4960) gene expression, Percentage ± SE (%)",Pa21 gene [5]; 10 uM,63 ± 5.6%
same,"Pa21 (H4960) gene expression, Percentage ± SE (%)",Pa21 gene [5]; 50 uM,109 ± 4.5%
same,"Pa21 (H4960) gene expression, Percentage ± SE (%)",Pa21 gene [5]; 250 uM,121 ± 17.3%
same,"Pa21 (H4960) gene expression, Percentage ± SE (%)",Pa21 gene [2]; [11],63.6 ± 17.3%
same,"Pa21 (H4960) gene expression, Percentage ± SE (%)",Pa21 gene [2]; [12],227.3 ± 54%
same,"Pa21 (H4960) gene expression, Percentage ± SE (%)",Pa21 gene [2]; [13],209.1 ± 20.4%
same,"Pa21 (H4960) gene expression, Percentage ± SE (%)",Pa21 gene [2]; [14],300 ± 20.6%
same,"Pa21 (H4960) gene expression, Percentage ± SE (%)",Pa21 gene [2]; [15],336.4 ± 24.3%
same,"Pa9 (W38098) gene expression, Percentage ± SE (%)",Pa9 gene [6]; 3 uM,120 ± 34.2%
same,"Pa9 (W38098) gene expression, Percentage ± SE (%)",Pa9 gene [6]; 10 uM,230 ± 15.7%
same,"Pa9 (W38098) gene expression, Percentage ± SE (%)",Pa9 gene [6]; 30 uM,340 ± 7.4%
same,"Pa9 (W38098) gene expression, Percentage ± SE (%)",Pa9 gene [6]; 100 uM,350 ± 19.7%
same,"Pa9 (W38098) gene expression, Percentage ± SE (%)",Pa9 gene [6]; 300 uM,550 ± 14%
same,"Pa9 (W38098) gene expression, Percentage ± SE (%)",Pa9 gene [3]; [11],110 ± 12.7%
same,"Pa9 (W38098) gene expression, Percentage ± SE (%)",Pa9 gene [3]; [12],90 ± 23%
same,"Pa9 (W38098) gene expression, Percentage ± SE (%)",Pa9 gene [3]; [13],80 ± 2%
same,"Pa9 (W38098) gene expression, Percentage ± SE (%)",Pa9 gene [3]; [14],140 ± 37.1%
same,"Pa9 (W38098) gene expression, Percentage ± SE (%)",Pa9 gene [3]; [15],200 ± 11.5%
same,"Pa9 (W38098) gene expression, Percentage ± SE (%)",Pa9 gene [7],127 ± 1.5%
same,"Pa13 (N26311) gene expression, Percentage ± SE (%)",Pa13 gene [8]; 3 uM,72.7 ± 30.9%
same,"Pa13 (N26311) gene expression, Percentage ± SE (%)",Pa13 gene [8]; 10 uM,63.6 ± 11.8%
same,"Pa13 (N26311) gene expression, Percentage ± SE (%)",Pa13 gene [8]; 30 uM,181.8 ± 3%
same,"Pa13 (N26311) gene expression, Percentage ± SE (%)",Pa13 gene [8]; 100 uM,218.2 ± 2.9%
same,"Pa13 (N26311) gene expression, Percentage ± SE (%)",Pa13 gene [8]; 300 uM,309.1 ± 7.4%
same,"Pa21 (H4960) gene expression, Percentage ± SE (%)",Pa21 gene [9]; 3 uM,110 ± 14.5%
same,"Pa21 (H4960) gene expression, Percentage ± SE (%)",Pa21 gene [9]; 10 uM,290 ± 1.4%
same,"Pa21 (H4960) gene expression, Percentage ± SE (%)",Pa21 gene [9]; 30 uM,280 ± 52.5%
